From PMC9508125, “The evolutionary advantage of an aromatic clamp in plant family 3 glycoside exo-hydrolases” (Nature Communications, 2022)
Numbering of substitutions follows the chain as printed.

Experiments:
Test in all cases: Relative rates of hydrolysis of poly-, oligosaccharides and aryl-glycosides
Format in all cases: biochemical
HvExoI W286Y mutant = molecular target: T1, HvExoI W286Y mutant (Hordeum vulgare, UniProt Q9XEI3, W311Y); conditions: substance is the substrate, nd = activity not detected
T1 sequence (Q9XEI3 26-630 W311Y): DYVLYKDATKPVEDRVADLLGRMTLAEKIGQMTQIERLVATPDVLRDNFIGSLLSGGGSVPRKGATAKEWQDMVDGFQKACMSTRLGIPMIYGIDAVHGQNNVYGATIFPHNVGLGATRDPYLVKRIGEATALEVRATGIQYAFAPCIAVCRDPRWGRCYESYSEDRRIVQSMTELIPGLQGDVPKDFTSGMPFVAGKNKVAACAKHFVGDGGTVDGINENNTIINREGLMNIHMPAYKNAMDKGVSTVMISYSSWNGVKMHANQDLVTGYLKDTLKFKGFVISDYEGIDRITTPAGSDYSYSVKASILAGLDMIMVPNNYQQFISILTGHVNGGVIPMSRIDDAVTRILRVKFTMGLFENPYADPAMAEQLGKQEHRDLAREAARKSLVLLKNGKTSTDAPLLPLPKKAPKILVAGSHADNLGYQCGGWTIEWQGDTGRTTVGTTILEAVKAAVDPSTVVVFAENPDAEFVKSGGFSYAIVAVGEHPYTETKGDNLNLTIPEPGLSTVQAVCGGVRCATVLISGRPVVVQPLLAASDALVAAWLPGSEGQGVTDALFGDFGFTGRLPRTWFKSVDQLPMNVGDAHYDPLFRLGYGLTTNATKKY
How it was run: (§1)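 Steady-state apparent constants are derived from proportionally weighted nonlinear regression of Michaelis-Menten data. Rates of hydrolysis of polysaccharides, oligosaccharides and aryl-glucosides are relative values obtained with 50 pmoles of near-homogeneous HvExoI. The pH and temperature dependence was tested on 0.2% (w/v) 4NP-Glc.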

HvExoI W434A mutant = molecular target: T2, HvExoI W434A mutant (Hordeum vulgare, UniProt Q9XEI3, W459A); conditions: substance is the substrate, nd = activity not detected
T2 sequence (Q9XEI3 26-630 W459A): T1 sequence (Q9XEI3 26-630 W311Y) with Y286W, W434A
How it was run: as §1

HvExoI W434F mutant = molecular target: T3, HvExoI W434F mutant (Hordeum vulgare, UniProt Q9XEI3, W459F); conditions: substance is the substrate, nd = activity not detected
T3 sequence (Q9XEI3 26-630 W459F): T1 sequence (Q9XEI3 26-630 W311Y) with Y286W, W434F
How it was run: as §1

HvExoI W434H mutant = molecular target: T4, HvExoI W434H mutant (Hordeum vulgare, UniProt Q9XEI3, W459H); conditions: substance is the substrate
T4 sequence (Q9XEI3 26-630 W459H): T1 sequence (Q9XEI3 26-630 W311Y) with Y286W, W434H
How it was run: as §1

O=[N+]([O-])c1ccc(O[C@@H]2O[C@H](CO)[C@@H](O)[C@H](O)[C@H]2O)cc1 [4NP-Glc, 4-nitrophenyl β-D-glucopyranoside]
Activity (relative rate of hydrolysis) (HvExoI W286Y mutant): 19.6 ± 0.01 μmole/min per mg protein | Activity (relative rate of hydrolysis) (HvExoI W434A mutant): 6.1 ± 0.1 μmole/min per mg protein | Activity (relative rate of hydrolysis) (HvExoI W434F mutant): 5.0 ± 0.01 μmole/min per mg protein | Activity (relative rate of hydrolysis) (HvExoI W434H mutant): 2.4 ± 0.2 μmole/min per mg protein

OC[C@H]1O[C@@H](O[C@H]2[C@H](O)[C@@H](O)[C@H](O[C@H]3[C@H](O)[C@@H](O)[C@H](O[C@H]4[C@H](O)[C@@H](O)[C@H](O[C@H]5[C@H](O)[C@@H](O)[C@H](O[C@H]6[C@H](O)[C@@H](O)C(O)O[C@@H]6CO)O[C@@H]5CO)O[C@@H]4CO)O[C@@H]3CO)O[C@@H]2CO)[C@H](O)[C@@H](O)[C@@H]1O (some centres unmarked) [Cellohexaose]
Activity (relative rate of hydrolysis) (HvExoI W286Y mutant): 7.0 ± 0.1 μmole/min per mg protein | Activity (relative rate of hydrolysis) (HvExoI W434F mutant): 1.9 ± 0.1 μmole/min per mg protein | Activity (relative rate of hydrolysis) (HvExoI W434H mutant): 0.3 ± 0.02 μmole/min per mg protein

OC[C@H]1O[C@@H](O[C@H]2[C@H](O)[C@@H](O)[C@H](O[C@H]3[C@H](O)[C@@H](O)[C@H](O[C@H]4[C@H](O)[C@@H](O)[C@H](O[C@H]5[C@H](O)[C@@H](O)C(O)O[C@@H]5CO)O[C@@H]4CO)O[C@@H]3CO)O[C@@H]2CO)[C@H](O)[C@@H](O)[C@@H]1O (some centres unmarked) [Cellopentaose]
Activity (relative rate of hydrolysis) (HvExoI W286Y mutant): 5.8 ± 0.2 μmole/min per mg protein | Activity (relative rate of hydrolysis) (HvExoI W434F mutant): 1.7 ± 0.1 μmole/min per mg protein | Activity (relative rate of hydrolysis) (HvExoI W434H mutant): 0.2 ± 0.01 μmole/min per mg protein

OC[C@H]1O[C@@H](O[C@H]2[C@H](O)[C@@H](O)[C@H](O[C@H]3[C@H](O)[C@@H](O)[C@H](O[C@H]4[C@H](O)[C@@H](O)C(O)O[C@@H]4CO)O[C@@H]3CO)O[C@@H]2CO)[C@H](O)[C@@H](O)[C@@H]1O (some centres unmarked) [Cellotetraose]
Activity (relative rate of hydrolysis) (HvExoI W286Y mutant): 6.3 ± 1.1 μmole/min per mg protein | Activity (relative rate of hydrolysis) (HvExoI W434F mutant): 1.9 ± 0.1 μmole/min per mg protein | Activity (relative rate of hydrolysis) (HvExoI W434H mutant): 0.2 ± 0.01 μmole/min per mg protein

OC[C@H]1O[C@@H](O[C@H]2[C@H](O)[C@@H](O)[C@H](O[C@H]3[C@H](O)[C@@H](O)C(O)O[C@@H]3CO)O[C@@H]2CO)[C@H](O)[C@@H](O)[C@@H]1O (some centres unmarked) [Cellotriose]
Activity (relative rate of hydrolysis) (HvExoI W286Y mutant): 5.6 ± 0.1 μmole/min per mg protein | Activity (relative rate of hydrolysis) (HvExoI W434F mutant): 1.2 ± 0.3 μmole/min per mg protein | Activity (relative rate of hydrolysis) (HvExoI W434H mutant): 0.3 ± 0.03 μmole/min per mg protein

OC[C@H]1O[C@@H](O[C@@H]2[C@@H](O)[C@H](O[C@@H]3[C@@H](O)[C@H](O[C@@H]4[C@@H](O)[C@H](O[C@@H]5[C@@H](O)[C@H](O[C@@H]6[C@@H](O)[C@H](O[C@@H]7[C@@H](O)[C@H](O)O[C@H](CO)[C@H]7O)O[C@H](CO)[C@H]6O)O[C@H](CO)[C@H]5O)O[C@H](CO)[C@H]4O)O[C@H](CO)[C@H]3O)O[C@H](CO)[C@H]2O)[C@H](O)[C@@H](O)[C@@H]1O [Laminariheptaose]
Activity (relative rate of hydrolysis) (HvExoI W286Y mutant): 14.5 ± 2.0 μmole/min per mg protein | Activity (relative rate of hydrolysis) (HvExoI W434A mutant): 1.0 ± 0.1 μmole/min per mg protein | Activity (relative rate of hydrolysis) (HvExoI W434F mutant): 13.5 ± 0.4 μmole/min per mg protein | Activity (relative rate of hydrolysis) (HvExoI W434H mutant): 1.6 ± 0.1 μmole/min per mg protein

OC[C@H]1O[C@@H](O[C@@H]2[C@@H](O)[C@H](O[C@@H]3[C@@H](O)[C@H](O[C@@H]4[C@@H](O)[C@H](O[C@@H]5[C@@H](O)[C@H](O[C@H]6[C@H](O)[C@@H](CO)OC(O)[C@@H]6O)O[C@H](CO)[C@H]5O)O[C@H](CO)[C@H]4O)O[C@H](CO)[C@H]3O)O[C@H](CO)[C@H]2O)[C@H](O)[C@@H](O)[C@@H]1O (some centres unmarked) [Laminarihexaose]
Activity (relative rate of hydrolysis) (HvExoI W286Y mutant): 15.8 ± 0.1 μmole/min per mg protein | Activity (relative rate of hydrolysis) (HvExoI W434A mutant): 1.0 ± 0.02 μmole/min per mg protein | Activity (relative rate of hydrolysis) (HvExoI W434F mutant): 15.8 ± 1.0 μmole/min per mg protein | Activity (relative rate of hydrolysis) (HvExoI W434H mutant): 1.5 ± 0.1 μmole/min per mg protein

OC[C@H]1O[C@@H](O[C@@H]2[C@@H](O)[C@H](O[C@@H]3[C@@H](O)[C@H](O[C@@H]4[C@@H](O)[C@H](O[C@@H]5[C@@H](O)[C@H](O)O[C@H](CO)[C@H]5O)O[C@H](CO)[C@H]4O)O[C@H](CO)[C@H]3O)O[C@H](CO)[C@H]2O)[C@H](O)[C@@H](O)[C@@H]1O [Laminaripentaose]
Activity (relative rate of hydrolysis) (HvExoI W286Y mutant): 14.8 ± 0.4 μmole/min per mg protein | Activity (relative rate of hydrolysis) (HvExoI W434A mutant): 1.0 ± 0.1 μmole/min per mg protein | Activity (relative rate of hydrolysis) (HvExoI W434F mutant): 14.6 ± 0.4 μmole/min per mg protein | Activity (relative rate of hydrolysis) (HvExoI W434H mutant): 1.5 ± 0.1 μmole/min per mg protein

OC[C@H]1O[C@@H](O[C@@H]2[C@@H](O)[C@H](O[C@@H]3[C@@H](O)[C@H](O[C@H]4[C@H](O)[C@@H](CO)OC(O)[C@@H]4O)O[C@H](CO)[C@H]3O)O[C@H](CO)[C@H]2O)[C@H](O)[C@@H](O)[C@@H]1O (some centres unmarked) [Laminaritetraose]
Activity (relative rate of hydrolysis) (HvExoI W286Y mutant): 13.8 ± 0.1 μmole/min per mg protein | Activity (relative rate of hydrolysis) (HvExoI W434A mutant): 1.1 ± 0.1 μmole/min per mg protein | Activity (relative rate of hydrolysis) (HvExoI W434F mutant): 15.0 ± 1.5 μmole/min per mg protein | Activity (relative rate of hydrolysis) (HvExoI W434H mutant): 1.4 ± 0.1 μmole/min per mg protein

OC[C@H]1O[C@@H](O[C@H]2C(O)O[C@H](CO)[C@@H](O)[C@@H]2O)[C@H](O)[C@@H](O)[C@@H]1O (some centres unmarked) [Sophorose]
Activity (relative rate of hydrolysis) (HvExoI W286Y mutant): 12.5 ± 0.2 μmole/min per mg protein | Activity (relative rate of hydrolysis) (HvExoI W434F mutant): 6.6 ± 0.4 μmole/min per mg protein | Activity (relative rate of hydrolysis) (HvExoI W434H mutant): 0.6 ± 0.1 μmole/min per mg protein

Cellobiose
Activity (relative rate of hydrolysis) (HvExoI W286Y mutant): 3.2 ± 0.1 μmole/min per mg protein | Activity (relative rate of hydrolysis) (HvExoI W434F mutant): 0.4 ± 0.1 μmole/min per mg protein | Activity (relative rate of hydrolysis) (HvExoI W434H mutant): 0.1 ± 0.01 μmole/min per mg protein

Gentiobiose
Activity (relative rate of hydrolysis) (HvExoI W286Y mutant): 7.6 ± 0.8 μmole/min per mg protein | Activity (relative rate of hydrolysis) (HvExoI W434F mutant): 1.2 ± 0.3 μmole/min per mg protein | Activity (relative rate of hydrolysis) (HvExoI W434H mutant): 0.3 ± 0.02 μmole/min per mg protein
